Biological target: T1, Nuclear receptor subfamily 1 group I member 2 (Homo sapiens, UniProt O75469)
T1 sequence (O75469 whole entry): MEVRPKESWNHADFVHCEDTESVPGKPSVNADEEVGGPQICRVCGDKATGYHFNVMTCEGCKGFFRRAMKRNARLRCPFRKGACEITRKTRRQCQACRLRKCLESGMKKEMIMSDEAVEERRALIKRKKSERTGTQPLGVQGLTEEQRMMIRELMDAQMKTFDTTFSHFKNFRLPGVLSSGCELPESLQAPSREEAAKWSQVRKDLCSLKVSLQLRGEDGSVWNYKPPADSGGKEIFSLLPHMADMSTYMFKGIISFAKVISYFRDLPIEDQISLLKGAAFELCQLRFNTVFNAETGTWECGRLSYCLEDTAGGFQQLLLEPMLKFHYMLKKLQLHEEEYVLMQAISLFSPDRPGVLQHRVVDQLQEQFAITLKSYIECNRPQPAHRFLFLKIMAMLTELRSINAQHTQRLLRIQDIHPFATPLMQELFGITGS
Assay: Competition Ligand Binding Assay and Transient Transfection Assay
Conditions: pH 8; 22 °C
Method: Polylysine YiO imaging beads (Amersham, GE Healthcare) were coated with histidine-tagged WT PXR LBD. Nonspecific binding sites were blocked with BSA. [N-Methyl-3H]-GW0438X was added to the blocked receptor-bead. The receptor-bead-radioligand mix was added directly to test compounds in 384-well plates. […] Nonspecific binding was determined in the presence of 10 uM GW0438. Data analysis was achieved using a three-parameter fit. The data were calculated as pIC50s. The pEC50 values were obtained from measurement of Luciferase reporter activity in CV-1 cells transfected with full-length hPXR.

| EC50 [nM] | IC50 [nM] | SMILES |
| --- | --- | --- |
| 126 | 251 | CCC(O)(c1ccc(N(CC(F)(F)F)S(=O)(=O)c2ccccc2)cc1)C(F)(F)F (stereo not drawn) [N-[4-(1,1,1-trifluoro-2-hydroxybutan-2-yl)phenyl]-N-(2,2,2-trifluoroethyl)benzenesulfonamide] |
| 3 | – | O=S(=O)(c1ccccc1)N(CC(F)(F)F)c1ccc(C(O)(C2CCCCC2)C(F)(F)F)cc1 (stereo not drawn) [N-[4-(1-cyclohexyl-2,2,2-trifluoro-1-hydroxyethyl)phenyl]-N-(2,2,2-trifluoroethyl)benzenesulfonamide] |

From BindingDB's records for doi:10.1016/j.bmc.2006.12.026 (University of North Carolina At Chapel Hill, 2007)
